According to ChEMBL document CHEMBL4706528, “The design, synthesis and anti-tumor mechanism study of new androgen receptor degrader” (Eur J Med Chem, 2020):
The source made the active and inactive calls. The calls are words filed in the database; no cut-off is given here.

Legend:
[1] = molecular target: T1, Androgen receptor (Homo sapiens) (UniProt P10275); assay: Binding affinity to androgen receptor LBD (unknown origin) at 10 uM incubated for 4 hrs under dark by fluorescence polarization based binding assay relative to R1881
T1 sequence (whole entry): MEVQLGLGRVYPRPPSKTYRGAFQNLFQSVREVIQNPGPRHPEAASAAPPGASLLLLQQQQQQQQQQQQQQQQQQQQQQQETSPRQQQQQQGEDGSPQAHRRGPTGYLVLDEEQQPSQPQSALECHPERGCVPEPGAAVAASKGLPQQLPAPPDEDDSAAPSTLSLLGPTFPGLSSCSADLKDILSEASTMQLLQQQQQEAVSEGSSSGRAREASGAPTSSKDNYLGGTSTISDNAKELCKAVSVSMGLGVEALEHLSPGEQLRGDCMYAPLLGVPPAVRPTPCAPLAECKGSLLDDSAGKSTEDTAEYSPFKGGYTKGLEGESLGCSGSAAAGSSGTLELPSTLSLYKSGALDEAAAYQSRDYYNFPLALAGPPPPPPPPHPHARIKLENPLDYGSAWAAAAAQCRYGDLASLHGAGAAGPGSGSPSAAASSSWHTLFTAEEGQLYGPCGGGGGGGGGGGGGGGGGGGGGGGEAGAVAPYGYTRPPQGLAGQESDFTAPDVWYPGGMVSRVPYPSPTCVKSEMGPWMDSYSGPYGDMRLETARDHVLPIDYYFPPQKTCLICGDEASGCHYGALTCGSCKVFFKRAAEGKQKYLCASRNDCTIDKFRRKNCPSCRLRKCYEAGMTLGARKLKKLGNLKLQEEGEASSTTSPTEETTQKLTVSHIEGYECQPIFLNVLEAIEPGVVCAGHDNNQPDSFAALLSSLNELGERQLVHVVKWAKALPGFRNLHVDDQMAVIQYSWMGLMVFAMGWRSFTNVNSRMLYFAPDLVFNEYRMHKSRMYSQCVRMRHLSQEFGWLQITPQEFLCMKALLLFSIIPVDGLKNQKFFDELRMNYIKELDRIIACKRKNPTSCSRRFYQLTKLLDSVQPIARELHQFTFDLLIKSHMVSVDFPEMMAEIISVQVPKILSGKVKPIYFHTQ

LNCaP C4-2B = assay: Antiproliferative activity against androgen-sensitive positive human LNCaP C4-2B cells assessed as cell growth inhibition measured after 72 hrs by SRB assay; type: functional, cell-based
[2] = Cytotoxicity against androgen-negative human WPMY-1 cells assessed as cell growth inhibition measured after 72 hrs by SRB assay; type: cell-based; details: WPMY-1, 72 h
GES1 = assay: Cytotoxicity against androgen-negative human GES1 cells assessed as cell growth inhibition measured after 72 hrs by SRB assay; type: cell-based; details: GES1, 72 h
LNCaP [3] = assay: Induction of cell cycle arrest in human LNCaP cells assessed as accumulation at G1 phase at 1 micromol/L after 24 hrs by RNase A/PI-staining based flow cytometric analysis (reference value: 47.99%); type: functional; details: dose 1 µmol/L, at 1 µM
LNCaP [4] = assay: Induction of cell cycle arrest in human LNCaP cells assessed as accumulation at G1 phase at 2 micromol/L after 24 hrs by RNase A/PI-staining based flow cytometric analysis (reference value: 47.99%); type: functional; details: dose 2 µmol/L, at 2 µM
LNCaP [5] = assay: Induction of cell cycle arrest in human LNCaP cells assessed as accumulation at G1 phase at 10 micromol/L after 24 hrs by RNase A/PI-staining based flow cytometric analysis (reference value: 47.99%); type: functional; details: dose 10 µmol/L, at 10 µM
LNCaP [6] = assay: Induction of apoptosis in human LNCaP cells assessed as necrotic cells level at 1 micromol/L incubated for 24 hrs by Annexin V/PI staining staining based flow cytometry (reference value: 0.694%); type: functional; details: dose 1 µmol/L, at 1 µM
LNCaP [7] = assay: Induction of apoptosis in human LNCaP cells assessed as necrotic cells level at 2 micromol/L incubated for 24 hrs by Annexin V/PI staining staining based flow cytometry (reference value: 0.694%); type: functional; details: dose 2 µmol/L, at 2 µM
LNCaP [8] = assay: Induction of apoptosis in human LNCaP cells assessed as early apoptotic cells level at 2 micromol/L incubated for 24 hrs by Annexin V/PI staining staining based flow cytometry (reference value: 2.09%); type: functional; details: dose 2 µmol/L, at 2 µM
LNCaP [9] = assay: Induction of apoptosis in human LNCaP cells assessed as early apoptotic cells level at 10 micromol/L incubated for 24 hrs by Annexin V/PI staining staining based flow cytometry (reference value: 2.09%); type: functional; details: dose 10 µmol/L, at 10 µM
[10] = molecular target: T1, Androgen receptor (Homo sapiens); assay: Selective androgen receptor degradation activity at androgen receptor in human LNCaP cells assessed as down regulation of protein level at 1 uM after 24 hrs by Western blot analysis; type: cell-based
[11] = molecular target: T1, Androgen receptor (Homo sapiens); assay: Selective androgen receptor degradation activity at androgen receptor in human LNCaP cells assessed as down regulation of protein level at 10 uM after 72 hrs by Western blot analysis; type: cell-based
Progesterone receptor = molecular target: T2, Progesterone receptor (Homo sapiens, UniProt P06401); assay: Induction of downregulation of progesterone receptor in human T47D cells at 10 uM measured after 24 hrs by Western blot analysis; type: cell-based
T2 sequence (P06401 whole entry): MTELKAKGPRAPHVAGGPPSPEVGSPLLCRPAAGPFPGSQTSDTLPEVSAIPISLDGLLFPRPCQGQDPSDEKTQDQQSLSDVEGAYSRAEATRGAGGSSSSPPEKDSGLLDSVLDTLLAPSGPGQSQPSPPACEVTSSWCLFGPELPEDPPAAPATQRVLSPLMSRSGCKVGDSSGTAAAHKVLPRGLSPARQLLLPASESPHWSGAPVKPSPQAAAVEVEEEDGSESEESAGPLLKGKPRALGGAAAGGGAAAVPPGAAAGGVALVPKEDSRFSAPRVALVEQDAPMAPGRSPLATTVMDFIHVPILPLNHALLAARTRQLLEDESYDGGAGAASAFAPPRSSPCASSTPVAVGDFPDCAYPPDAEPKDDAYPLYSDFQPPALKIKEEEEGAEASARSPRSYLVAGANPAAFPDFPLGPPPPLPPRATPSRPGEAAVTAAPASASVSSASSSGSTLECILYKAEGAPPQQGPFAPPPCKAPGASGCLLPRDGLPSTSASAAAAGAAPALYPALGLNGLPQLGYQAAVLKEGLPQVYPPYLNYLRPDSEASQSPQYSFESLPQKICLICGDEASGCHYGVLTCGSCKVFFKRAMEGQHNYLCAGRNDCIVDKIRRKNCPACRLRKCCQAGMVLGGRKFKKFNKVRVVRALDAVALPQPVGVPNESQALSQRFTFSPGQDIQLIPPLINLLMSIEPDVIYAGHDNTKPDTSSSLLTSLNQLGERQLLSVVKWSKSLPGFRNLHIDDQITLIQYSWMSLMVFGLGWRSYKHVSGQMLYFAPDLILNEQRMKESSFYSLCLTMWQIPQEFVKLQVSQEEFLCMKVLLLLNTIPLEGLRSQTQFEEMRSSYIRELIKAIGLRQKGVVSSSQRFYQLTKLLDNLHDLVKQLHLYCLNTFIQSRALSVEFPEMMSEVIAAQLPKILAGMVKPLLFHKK

[12] = molecular target: T1, Androgen receptor (Homo sapiens); assay: Selective androgen receptor degradation activity at androgen receptor in human LNCaP cells assessed as down regulation of protein level at 10 uM after 24 hrs in presence of E-64 by Western blot analysis; type: cell-based

## CC1(C)C(=O)N(c2ccc(C#N)c(C(F)(F)F)c2)C(=S)N1CCCCCn1cc(COCCOCCOC(=O)CC23CC4CC(CC(C4)C2)C3)nn1
[1]
  Activity: 85.3%
LNCaP C4-2B
  IC50: 16.6 µM
[2]
  IC50: > 80 µM
GES1
  IC50: > 80 µM
LNCaP [3]
  Activity: 59.3%
LNCaP [4]
  Activity: 67.54%
LNCaP [5]
  Activity: 74.56%
LNCaP [6]
  Activity: 0.774%
LNCaP [7]
  Activity: 0.774%
LNCaP [8]
  Activity: 1.56%
LNCaP [9]
  Activity: 14.4%
[10]
  Activity: Active
[11]
  Activity: Active
Progesterone receptor
  Activity: Active
[12]
  Activity: Active
